Assay results as given in PubChem BioAssay (NCI).
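Dose response: 5 concentrations. Exposure: 48 h. Format: 96-well plates. Endpoint: linear interpolation; highest concentration if not reached. Abbreviation: GI50, concentration required for 50% inhibition of growth. TGI: concentration producing complete growth inhibition.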

Assays:
Assay in all cases: growth of human tumour cells (NCI), 48 h
HOP-92 NSCLC = system: HOP-92 NSCLC
MDA-MB-435 = system: MDA-MB-435
MOLT-4 leukemia = system: MOLT-4 leukemia
NCI-H23 lung = system: NCI-H23 lung
OVCAR-4 ovarian = system: OVCAR-4 ovarian
OVCAR-8 ovarian = system: OVCAR-8 ovarian
SK-MEL-5 melanoma = system: SK-MEL-5 melanoma
T-47D breast = system: T-47D breast
UACC-257 melanoma = system: UACC-257 melanoma
MALME-3M melanoma = system: MALME-3M melanoma

SMILES | GI50 (HOP-92 NSCLC) | TGI (HOP-92 NSCLC) | GI50 (MDA-MB-435) | TGI (MDA-MB-435) | GI50 (MOLT-4 leukemia) | TGI (MOLT-4 leukemia) | GI50 (NCI-H23 lung) | TGI (NCI-H23 lung) | GI50 (OVCAR-4 ovarian) | TGI (OVCAR-4 ovarian) | GI50 (OVCAR-8 ovarian) | TGI (OVCAR-8 ovarian) | GI50 (SK-MEL-5 melanoma) | TGI (SK-MEL-5 melanoma) | GI50 (T-47D breast) | TGI (T-47D breast) | GI50 (UACC-257 melanoma) | TGI (UACC-257 melanoma) | TGI (MALME-3M melanoma) | GI50 (MALME-3M melanoma)
N/C(=N/S(=O)(=O)c1cc(C(=O)Nc2ccc(F)cc2)c(Cl)cc1SCc1ccccc1)Nc1ccccc1O | 1.9 µM | 4.02 µM | 1.76 µM | 3.19 µM | 1.55 µM | 2.99 µM | 2.04 µM | 3.86 µM | 2.22 µM | 5.14 µM | 1.92 µM | 4.14 µM | 1.85 µM | 4.57 µM | 7.3 µM | 28.6 µM | 12.2 µM | 26.7 µM | – | –
CCSCCCC(=O)O | – | – | – | > 100 µM | – | > 100 µM | – | > 100 µM | – | > 100 µM | – | > 100 µM | – | > 100 µM | – | > 100 µM | – | > 100 µM | > 100 µM | –
N#CC(C#N)=C1CCC2C(=C(C#N)C#N)CCC12 (centres undefined) | – | > 100 µM | – | – | – | > 100 µM | – | > 100 µM | – | > 100 µM | – | > 100 µM | – | > 100 µM | – | – | – | > 100 µM | > 100 µM | –
FC(F)(F)c1nc(Br)[nH]c1C(F)(F)F | – | 71.7 µM | – | – | – | > 100 µM | – | > 100 µM | – | > 100 µM | – | > 100 µM | – | > 100 µM | – | – | – | > 100 µM | > 100 µM | –
CC(=O)[CH-]C(=O)c1ccccc1.CC(=O)[CH-]C(=O)c1ccccc1.CC(=O)[CH-]C(=O)c1ccccc1.[Br-].[Zr+4] | 18.6 µM | 61.4 µM | – | – | 47.2 µM | > 100 µM | > 100 µM | > 100 µM | 82.1 µM | > 100 µM | > 100 µM | > 100 µM | > 100 µM | > 100 µM | – | – | 48.2 µM | > 100 µM | 55.3 µM | 20.2 µM
Nc1cc(N)c2nc(-c3ccccc3)c(NCc3ccc(Cl)c(Cl)c3)nc2c1 | – | – | 2.74 µM | 7.56 µM | 2.07 µM | > 100 µM | 14.2 µM | 27.8 µM | 11.7 µM | > 100 µM | 3.41 µM | 13.5 µM | 3.48 µM | 10.7 µM | 19.4 µM | 54.4 µM | 4.53 µM | 15.7 µM | 13.8 µM | 3.41 µM
Cc1ccc(C2C3Cc4ccccc4C3=NN2c2ccc(S(=O)(=O)NC(=O)Nc3ccccc3)cc2)cc1 (centres undefined) | 14.3 µM | 28.2 µM | 18.7 µM | 46.2 µM | 8.88 µM | 34.4 µM | 14.9 µM | 31.9 µM | 17.9 µM | 50 µM | 21.6 µM | > 100 µM | 13.1 µM | 25.7 µM | 36.8 µM | > 100 µM | 18.6 µM | 37.8 µM | – | –
CC(C)(C)OC1=C(OC(C)(C)C)C(O)(c2ccc(Cl)cc2)C1=O (centres undefined) | – | – | – | – | – | > 100 µM | – | > 100 µM | – | > 100 µM | – | > 100 µM | – | > 100 µM | – | – | – | – | > 100 µM | –
C=C1C(C(=O)O)C1C(=O)O (centres undefined) | – | > 100 µM | – | – | – | > 100 µM | – | > 100 µM | – | > 100 µM | – | > 100 µM | – | > 100 µM | – | – | – | > 100 µM | > 100 µM | –
CCOC(=O)c1ccc(NC(=O)c2cccc(NC3=C(Cl)C(=O)N(Cc4ccccc4)C3=O)c2)cc1 | 78.8 µM | > 100 µM | > 100 µM | > 100 µM | 28.1 µM | 99.2 µM | – | – | > 100 µM | > 100 µM | > 100 µM | > 100 µM | > 100 µM | > 100 µM | > 100 µM | > 100 µM | > 100 µM | > 100 µM | – | –
CC(=O)O[C@H]1CC[C@]2(C)C3C(=O)C[C@]4(C)[C@@H](C(C)CCC(=O)O)CC[C@@]4(C)[C@@H]3CC[C@H]2C1(C)C (some centres undefined) | 36.8 µM | > 50 µM | 13.5 µM | 33.8 µM | > 50 µM | > 50 µM | 19.1 µM | > 50 µM | 40.4 µM | > 50 µM | 15.7 µM | > 50 µM | 8.53 µM | 17.5 µM | – | – | 13.3 µM | 33.9 µM | – | –
CSc1cc(C(C)(C)C)ccc1C(O)c1ccc(C(C)(C)C)cc1SC | – | 28.9 µM | – | – | – | 21.6 µM | – | 29.8 µM | – | 22.9 µM | – | 28.8 µM | – | 27.5 µM | – | – | – | 25.5 µM | 29.9 µM | –
CCc1ccccc1NC(=O)C(=O)C(C#N)c1c(Cl)cccc1Cl (centres undefined) | – | > 100 µM | – | – | – | > 100 µM | – | > 100 µM | – | – | – | – | – | – | – | – | – | > 100 µM | > 100 µM | –
CNC(=O)NCCN1N=C(C)/C(=C\c2ccccc2)CC1=O | – | > 100 µM | – | – | – | > 100 µM | – | > 100 µM | – | > 100 µM | – | > 100 µM | – | > 100 µM | – | – | – | > 100 µM | > 100 µM | –
CCOP(=O)(OCC)C(NC(c1ccccc1)c1ccccc1)c1ccc(C(C)C)cc1 (centres undefined) | 1.97 µM | 11 µM | 3.71 µM | 11.6 µM | 1.71 µM | 4.25 µM | 6.38 µM | 20.7 µM | 2.57 µM | 64.8 µM | 5.04 µM | 19.5 µM | 3.35 µM | 7.86 µM | 6.65 µM | 41.3 µM | – | – | – | –
O=C(c1ccc(Nc2nccc(NCCCCNc3ccnc4cc(Cl)ccc34)n2)cc1)N1CCCCC1 | 1.52 µM | 3.95 µM | 1.7 µM | 3.89 µM | 1.74 µM | 5.99 µM | 2.95 µM | 15.7 µM | 1.95 µM | 7.52 µM | 2.63 µM | 8.74 µM | 1.61 µM | 2.98 µM | 2.08 µM | 5.6 µM | 1.75 µM | 3.34 µM | – | –
CCCCNCCCCCNc1cc(OC)cc2cccnc12 | 2.77 µM | 23 µM | 19.8 µM | 41.4 µM | 18 µM | 41.1 µM | 15.9 µM | 31.7 µM | 26.2 µM | > 100 µM | 17.8 µM | 37.6 µM | 12.6 µM | 27.6 µM | – | – | 16.1 µM | 32.2 µM | 42.9 µM | 18 µM
COc1cc(NCCC2CCCCN2)c2ncccc2c1OC (centres undefined) | – | – | – | – | – | – | 7.09 µM | 31.3 µM | 1.5 µM | 2.86 µM | 6.49 µM | 59.2 µM | 4.28 µM | 14.9 µM | 2.91 µM | 14.4 µM | 2.79 µM | 9.36 µM | 30 µM | 14.2 µM
CC[P+]1(c2ccccc2)CCCCC1 | – | > 100 µM | – | – | – | > 100 µM | – | > 100 µM | – | > 100 µM | – | > 100 µM | – | > 100 µM | – | – | – | > 100 µM | > 100 µM | –
C=CCC1C(=O)CC2(C)C(CC=C)C(=O)CC12C (centres undefined) | – | > 100 µM | – | – | – | > 100 µM | – | > 100 µM | – | > 100 µM | – | > 100 µM | – | > 100 µM | – | – | – | > 100 µM | > 100 µM | –
O=C1CCc2ccc(O)c(c2)Oc2ccc(cc2)[C@@H]2O[C@@H]2CO1 | – | 88.2 µM | – | – | – | > 100 µM | – | > 100 µM | – | > 100 µM | – | > 100 µM | – | 58.2 µM | – | – | – | > 100 µM | 62.1 µM | –
N#CC1=C(c2ccccc2)OC2(N)OC(c3ccccc3)=C(C#N)C12C#N (centres undefined) | – | – | – | – | – | > 100 µM | – | > 100 µM | – | > 100 µM | – | > 100 µM | – | > 100 µM | – | – | – | > 100 µM | > 100 µM | –
CN(C)CCNC(=O)c1cccc2c1nc(-c1ccncc1)c1ccccc12 | – | 9.77 µM | – | – | – | > 100 µM | – | 13.1 µM | – | 15.6 µM | – | 41.9 µM | – | 6.8 µM | – | – | – | 12.6 µM | – | –
CC(=N/NC(N)=S)/C(C)=N/NC(N)=S | – | – | – | > 100 µM | – | > 100 µM | – | > 100 µM | – | – | – | > 100 µM | – | > 100 µM | – | – | – | > 100 µM | > 100 µM | –
O=C(OCc1ccccc1)n1cccc1 | – | > 100 µM | – | – | – | > 100 µM | – | > 100 µM | – | > 100 µM | – | > 100 µM | – | > 100 µM | – | – | – | > 100 µM | > 100 µM | –
CCOC(=O)CCn1cnc(N)n1 | – | > 100 µM | – | – | – | > 100 µM | – | > 100 µM | – | > 100 µM | – | > 100 µM | – | > 100 µM | – | – | – | > 100 µM | > 100 µM | –
Cc1ccc(NC(=O)CCC(=O)C2Cc3ccccc3C2=O)cc1C (centres undefined) | – | > 100 µM | – | – | – | > 100 µM | – | > 100 µM | – | > 100 µM | – | > 100 µM | – | > 100 µM | – | – | – | > 100 µM | > 100 µM | –
O=C1c2ccccc2C(=O)c2sc(Nc3ccc([N+](=O)[O-])cc3)nc21 | – | 28.6 µM | – | – | – | 7.17 µM | – | 9.77 µM | – | 11 µM | – | 13.7 µM | – | 6.38 µM | – | 6.81 µM | – | 11.7 µM | 12.6 µM | –
CC1(C)CN(CCNc2nccc(-c3c(-c4cccc(O)c4)nc4sccn34)n2)S(=O)(=O)N1 | 29.4 µM | > 33.2 µM | 0.641 µM | > 33.2 µM | 11.3 µM | > 33.2 µM | 16.8 µM | > 33.2 µM | 12.8 µM | > 33.2 µM | 0.307 µM | > 33.2 µM | 1.29 µM | 12.5 µM | 11.2 µM | > 33.2 µM | 2.12 µM | > 33.2 µM | – | –
